Assay results taken from PubChem BioAssay (NCI).
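Grown in 96-well plates, cells were treated for 48 hours with each compound at five concentrations. Insufficient inhibition: endpoint recorded as highest concentration tested. Definition used: TGI = concentration required for complete inhibition of growth.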

Legend:
Test in all cases: NCI-60 cell line screen, 48 h
[1] = test system: COLO 205 colon
[2] = test system: HOP-92 NSCLC
[3] = test system: MALME-3M melanoma
[4] = test system: SK-MEL-5 melanoma
[5] = test system: ACHN renal
[6] = test system: 786-0 renal
[7] = test system: HOP-62 NSCLC
[8] = test system: SF-539 CNS
[9] = test system: MDA-N
[10] = test system: SK-MEL-28 melanoma
[11] = test system: KM12 colon
[12] = test system: SK-MEL-2 melanoma
[13] = test system: SW-620 colon
[14] = test system: SNB-19 CNS
[15] = test system: A549 NSCLC
[16] = test system: HCC-2998 colon
[17] = test system: NCI-H226 lung
[18] = test system: DU-145 prostate
[19] = test system: OVCAR-4 ovarian
[20] = test system: HS 578T breast
[21] = test system: EKVX NSCLC
[22] = test system: K-562 leukemia
[23] = test system: HCT-15 colon
[24] = test system: CAKI-1 renal
[25] = test system: RPMI-8226 leukemia
[26] = test system: HCT-116 colon
[27] = test system: RXF 393 renal
[28] = test system: HL-60(TB) leukemia
[29] = test system: T-47D breast
[30] = test system: SK-OV-3 ovarian
[31] = test system: A498 renal
[32] = test system: UO-31 renal
[33] = test system: CCRF-CEM leukemia
[34] = test system: UACC-62 melanoma
[35] = test system: U251 CNS
[36] = test system: PC-3 prostate
[37] = test system: HT29 colon
[38] = test system: IGROV1 ovarian
[39] = test system: SNB-75 CNS
[40] = test system: NCI/ADR-RES ovarian
[41] = test system: MDA-MB-231 breast
[42] = test system: MDA-MB-435
[43] = test system: SF-295 CNS
[44] = test system: SR leukemia
[45] = test system: OVCAR-3 ovarian
[46] = test system: LOX IMVI melanoma
[47] = test system: NCI-H460 lung
[48] = test system: OVCAR-5 ovarian
[49] = test system: TK-10 renal
[50] = test system: SF-268 CNS
[51] = test system: MOLT-4 leukemia
[52] = test system: M14 melanoma
[53] = test system: NCI-H23 lung
[54] = test system: SN12C renal
[55] = test system: NCI-H522 lung
[56] = test system: UACC-257 melanoma
[57] = test system: BT-549 breast
[58] = test system: OVCAR-8 ovarian
[59] = test system: MCF7 breast

Measured: TGI

Nn1c(C23CC4CC(CC(C4)C2)C3)n[nH]c1=S
not listed: [56] | [57] | [58] | [59]
> 100 µM: all other assays above

O=c1[nH]c2cc(C(F)(F)F)ccc2nc1C(F)(F)F
99.1 µM: [55]
97.2 µM: [36]
35.7 µM: [4]
71.2 µM: [11]
85.2 µM: [42]
94.6 µM: [8]
58.2 µM: [27]
58 µM: [45]
45.2 µM: [2]
93.6 µM: [39]
76.7 µM: [7]
94.2 µM: [53]
89.9 µM: [24]
79.3 µM: [12]
90.6 µM: [56]
not listed: [20] | [28]
> 100 µM: all other assays above

CC1(C)[C@@H]2CC[C@]1(C)[C@H](OC(=O)CSC#N)C2
35.4 µM: [13]
67.9 µM: [8]
34.1 µM: [6]
not listed: [22] | [25] | [28] | [33] | [44] | [51]
> 100 µM: all other assays above

CC(C)(C)C1=C(Br)C(C(C)(C)C)OP1(=O)O (stereo not given)
not listed: [13] | [25] | [27] | [33] | [41] | [44] | [51] | [57]
> 100 µM: all other assays above

C=C(C)C1CCC(C(=O)O)CC1 (stereo not given)
not listed: [19] | [28] | [40] | [44]
> 100 µM: all other assays above

C=CC[C@]1(/C=N/O)CN(S(=O)(=O)CC[Si](C)(C)C)C[C@H]2CC=CC[C@H]21
51.7 µM: [36]
39.6 µM: [59]
51.5 µM: [11]
38 µM: [55]
54.7 µM: [10]
54.2 µM: [39]
34.7 µM: [13]
38.5 µM: [47]
58.5 µM: [21]
29.6 µM: [27]
42.3 µM: [14]
30 µM: [54]
40.7 µM: [33]
80.7 µM: [57]
40.4 µM: [3] | [46]
60.6 µM: [56]
39 µM: [7]
44.2 µM: [41] | [48]
30.7 µM: [15]
31.8 µM: [25] | [31]
> 100 µM: [4] | [23] | [29] | [32] | [40] | [42] | [50] | [53]
31.9 µM: [16]
27.3 µM: [26]
64.5 µM: [30]
46.9 µM: [18]
42.8 µM: [9] | [24]
32.8 µM: [8]
30.8 µM: [37]
36.8 µM: [49]
52.2 µM: [51]
67.5 µM: [22]
34.1 µM: [19]
67.3 µM: [58]
34.8 µM: [38]
34.4 µM: [17]
64.9 µM: [34]
32.6 µM: [1] | [12]
45 µM: [52]
31 µM: [43]
32.5 µM: [6]
32.2 µM: [35]

CCOC(=O)CCC(NC(=O)c1ccc(Nc2nc3ccc(C(F)(F)F)cc3nc2-c2ccccc2)cc1)C(=O)OCC (stereo not given)
76.8 µM: [3]
46.2 µM: [52]
> 64.2 µM: [46]
55.2 µM: [55]
76 µM: [45]
49.7 µM: [12]
> 87.2 µM: [32]
> 85.9 µM: [16]
29.7 µM: [1]
85.1 µM: [20]
58.9 µM: [41]
77.8 µM: [51]
60.4 µM: [29]
75.4 µM: [9]
44.2 µM: [34]
35.3 µM: [56]
not listed: [30] | [31] | [36]
> 100 µM: all other assays above

CC(=O)OCC1OC(N2C(c3ccccc3)=CC(c3cccs3)C(C#N)=C2S)C(OC(C)=O)C(OC(C)=O)C1OC(C)=O (stereo not given)
42.9 µM: [31]
not listed: [2] | [3] | [4] | [7] | [10] | [13] | [17] | [19] | [21] | [22] | [25] | [28] | [34] | [37] | [42] | [44] | [55] | [57] | [58]
> 100 µM: all other assays above
